Several values for one entry are separate records, joined by “and”; a condition that tells them apart may be missing. Identical values can stand only once. Entries after “also recorded” stand apart in the source; their conditions may differ. Like-named read-outs stand apart in the source and are kept apart here.
Assays:
[1] = Plasma PK, Part A single oral doses in healthy participants; assay type: in vivo, human; conditions: for AUC(0-t) / AUC(0-inf) / Cmax / Tmax / Vd/F / half-life: human, plasma; for Vd/F: read-out: Vz/F, geometric mean (CV%)
Protocol: A further two cohorts were recruited. […] Each individual participated in one treatment period only, with the exception of the food-effect cohort (cohort A3) in which there were two treatment periods separated by at least 7 days washout. Participants resided at the Clinical Research Unit (CRU) from 1 day ahead of dosing (day − 1) to day 3 and returned for a follow-up visit 5–7 days after their final dose. For all cohorts, doses were administered in the fasted state in the morning of day 1 of Treatment Period 1. In the food-effect cohort, doses were given 30 min after the start of a high-fat breakfast (973 calories total: approximately 150 protein calories, 250 carbohydrate calories, and 500–600 fat calories) on day 1 of Treatment Period 2. For cohorts A1 to A5 in Treatment Period 1, dosing occurred such that one pair (one active and one placebo) were dosed at least 24 h before the remaining participants. Continuation to dose those who remained was at the investigator’s discretion. Escalating doses were administered following satisfactory sponsor and investigator review of the safety and tolerability data (up to 48 h post-final dose) and PK data (up to 24 h post-final dose) from the lower dose levels.
Blood samples (4 mL) were collected in K3 EDTA tubes by venipuncture or cannulation. In Part A, samples were taken pre-dose and at 0.5, 1, 1.5, 2, 3, 4, 6, 8, 12, 16, 24, 36 and 48 h post-dose. In part B, samples were taken pre-dose on days 1 (pre-AM dose) and 10 (pre-final dose) and at 0.5, 1, 1.5, 2, 3, 4, 6, 8 and 12 h post-AM dose for day 1 and post-final dose for day 10. Samples were also taken on days 4–9 pre-AM dose, on day 11 at 24 and 36 h post-final dose, and on day 12 at 48 h post-final dose. Blood samples were centrifuged at 1500 g for 10 min at […] and split into two plasma aliquots.
Urine was collected by spot collection in Part A only before dosing and between 0–6, 6–12, 12–24, and 24–48 h post-dose. Blood and urine aliquots were stored in polypropylene tubes at − 70 °C until bioanalysis.
Noncompartmental PK analysis was performed on individual plasma and urine concentration data, using Phoenix® WinNonlin® 8.1 software (Certara USA Inc., Princeton NJ). Plasma PK parameter endpoints for Part A included area under the plasma concentration–time curve (AUC) from time 0 to infinity (AUC0–∞), AUC from time 0 to the time of the last quantifiable concentration (AUC0–tlast), maximum observed plasma concentration (Cmax), time of the maximum observed plasma concentration (Tmax), terminal half-life in plasma (t½), apparent total plasma clearance (CL/F), and apparent volume of distribution (Vz/F). Urine PK parameters calculated in Part A included amount of drug excreted in urine (Ae), percentage of dose excreted unchanged in urine (fe) and renal clearance (CLR).
Dose proportionality was analyzed for exposure parameters after fasted doses. The power model was used on AUC0–∞, AUC0–tlast, and Cmax on day 1 in Part A. Data were analyzed over two dose ranges: 50–400 mg (50 mg capsules) and 5–50 mg (5 mg capsules). An analysis of variance was used on AUC0–τ and Cmax on day 10 in Part B. The effect of food on AUC0–∞, AUC0–tlast, and Cmax at 50 mg in Part A was investigated using a mixed model which included treatment as a fixed effect and subject as a random effect.

[2] = Maximum recommended starting dose in humans from preclinical studies; design: species or system human
Protocol: A starting dose of 5 mg was chosen as this was approximately twofold lower than the maximum recommended starting dose (MRSD) in humans of 9.6 mg determined from the results of a murine PD study, and was therefore not expected to have any pharmacological activity. This dose was also more than 30-fold lower than the MRSD of 162 mg calculated from the no observed adverse effect level in the toxicology species (mouse and dog).

[3] = design: method as in PMID 36154172; conditions: in mice; cited from earlier work
[4] = 50 mg after a high-fat meal vs fasted

## OC[C@H]1O[C@H](Sc2cncc(Br)c2)[C@H](O)[C@@H](n2cc(-c3cc(F)c(F)c(F)c3)nn2)[C@H]1O [GB1211]
[1]; [4]
  Delay of absorption in the fed state: 2 h and ~ 2 h
  Effect of food on systemic exposure: unaffected; also recorded: did not markedly affect systemic exposure; also recorded: minor food-effect on drug disposition
[1]; 5–50 mg (5 mg capsule) dose range
  Dose proportionality of systemic exposure: dose-proportional manner
[1]; 50–400 mg (50 mg capsule) dose range
  Dose proportionality of systemic exposure: sub-proportional manner
[1]; oral, 5 mg, single dose 5 mg (1 × 5 mg), fasted, read-out: AUC0–tlast, geometric mean (CV%)
  AUC(0-t): 677 ng·h/mL
[1]; oral, 5 mg, single dose 5 mg (1 × 5 mg), fasted, read-out: AUC0–∞, geometric mean (CV%)
  AUC(0-inf): 712 ng·h/mL
[1]; oral, 5 mg, single dose 5 mg (1 × 5 mg), fasted, read-out: Cmax, geometric mean (CV%)
  Cmax: 75.2 ng/mL
[1]; oral, 5 mg, single dose 5 mg (1 × 5 mg), fasted, read-out: Tmax, median (min–max)
  Tmax: 2 h
[1]; oral, 5 mg, single dose 5 mg (1 × 5 mg), fasted
  Vd/F: 114 L
[1]; oral, 5 mg, single dose 5 mg (1 × 5 mg), fasted, read-out: t½, arithmetic mean (SD) (converted)
  half-life: 11.3 h
[1]; oral, 20 mg, single dose 20 mg (4 × 5 mg), fasted, read-out: AUC0–tlast, geometric mean (CV%)
  AUC(0-t): 3150 ng·h/mL
[1]; oral, 20 mg, single dose 20 mg (4 × 5 mg), fasted, read-out: AUC0–∞, geometric mean (CV%)
  AUC(0-inf): 3350 ng·h/mL
[1]; oral, 20 mg, single dose 20 mg (4 × 5 mg), fasted, read-out: Cmax, geometric mean (CV%)
  Cmax: 365 ng/mL
[1]; oral, 20 mg, single dose 20 mg (4 × 5 mg), fasted, read-out: Tmax, median (min–max)
  Tmax: 1.75 h
[1]; oral, 20 mg, single dose 20 mg (4 × 5 mg), fasted
  Vd/F: 104 L
[1]; oral, 20 mg, single dose 20 mg (4 × 5 mg), fasted, read-out: t½, arithmetic mean (SD) (converted)
  half-life: 12.2 h
[1]; oral, 50 mg, Fasted, read-out: AUC0–tlast, geometric LS means
  AUC(0-t): 4180 ng·h/mL
[1]; oral, 50 mg, Fasted, read-out: AUC0–∞, geometric LS means
  AUC(0-inf): 4520 ng·h/mL
[1]; oral, 50 mg, Fasted, read-out: Cmax, geometric LS means
  Cmax: 358 ng/mL
[1]; oral, 50 mg, Fed, read-out: AUC0–tlast, geometric LS means
  AUC(0-t): 4930 ng·h/mL
[1]; oral, 50 mg, Fed, read-out: AUC0–∞, geometric LS means
  AUC(0-inf): 5420 ng·h/mL
[1]; oral, 50 mg, Fed, read-out: Cmax, geometric LS means
  Cmax: 389 ng/mL
[1]; oral, 50 mg, single dose 50 mg (1 × 50 mg), fasted, read-out: AUC0–tlast, geometric mean (CV%)
  AUC(0-t): 4180 ng·h/mL
[1]; oral, 50 mg, single dose 50 mg (1 × 50 mg), fasted, read-out: AUC0–∞, geometric mean (CV%)
  AUC(0-inf): 4520 ng·h/mL
[1]; oral, 50 mg, single dose 50 mg (1 × 50 mg), fasted, read-out: Cmax, geometric mean (CV%)
  Cmax: 358 ng/mL
[1]; oral, 50 mg, single dose 50 mg (1 × 50 mg), fasted, read-out: Tmax, median (min–max)
  Tmax: 3.04 h
[1]; oral, 50 mg, single dose 50 mg (1 × 50 mg), fasted
  Vd/F: 200 L
[1]; oral, 50 mg, single dose 50 mg (1 × 50 mg), fasted, read-out: t½, arithmetic mean (SD) (converted)
  half-life: 12.7 h
[1]; oral, 50 mg, single dose 50 mg (1 × 50 mg), fed, read-out: AUC0–tlast, geometric mean (CV%)
  AUC(0-t): 4930 ng·h/mL
[1]; oral, 50 mg, single dose 50 mg (1 × 50 mg), fed, read-out: AUC0–∞, geometric mean (CV%)
  AUC(0-inf): 5420 ng·h/mL
[1]; oral, 50 mg, single dose 50 mg (1 × 50 mg), fed, read-out: Cmax, geometric mean (CV%)
  Cmax: 389 ng/mL
[1]; oral, 50 mg, single dose 50 mg (1 × 50 mg), fed, read-out: Tmax, median (min–max)
  Tmax: 5 h
[1]; oral, 50 mg, single dose 50 mg (1 × 50 mg), fed
  Vd/F: 169 L
[1]; oral, 50 mg, single dose 50 mg (1 × 50 mg), fed, read-out: t½, arithmetic mean (SD) (converted)
  half-life: 12.9 h
[1]; oral, 50 mg, single dose 50 mg (10 × 5 mg), fasted, read-out: AUC0–tlast, geometric mean (CV%)
  AUC(0-t): 6890 ng·h/mL
[1]; oral, 50 mg, single dose 50 mg (10 × 5 mg), fasted, read-out: AUC0–∞, geometric mean (CV%)
  AUC(0-inf): 7480 ng·h/mL
[1]; oral, 50 mg, single dose 50 mg (10 × 5 mg), fasted, read-out: Cmax, geometric mean (CV%)
  Cmax: 861 ng/mL
[1]; oral, 50 mg, single dose 50 mg (10 × 5 mg), fasted, read-out: Tmax, median (min–max)
  Tmax: 1.75 h
[1]; oral, 50 mg, single dose 50 mg (10 × 5 mg), fasted
  Vd/F: 133 L
[1]; oral, 50 mg, single dose 50 mg (10 × 5 mg), fasted, read-out: t½, arithmetic mean (SD) (converted)
  half-life: 13.8 h
[1]; oral, 100 mg, single dose 100 mg (2 × 50 mg), fasted, read-out: AUC0–tlast, geometric mean (CV%)
  AUC(0-t): 5910 ng·h/mL
[1]; oral, 100 mg, single dose 100 mg (2 × 50 mg), fasted, read-out: AUC0–∞, geometric mean (CV%)
  AUC(0-inf): 6380 ng·h/mL
[1]; oral, 100 mg, single dose 100 mg (2 × 50 mg), fasted, read-out: Cmax, geometric mean (CV%)
  Cmax: 525 ng/mL
[1]; oral, 100 mg, single dose 100 mg (2 × 50 mg), fasted, read-out: Tmax, median (min–max)
  Tmax: 3.5 h
[1]; oral, 100 mg, single dose 100 mg (2 × 50 mg), fasted
  Vd/F: 282 L
[1]; oral, 100 mg, single dose 100 mg (2 × 50 mg), fasted, read-out: t½, arithmetic mean (SD) (converted)
  half-life: 12.8 h
[1]; oral, 200 mg, single dose 200 mg (4 × 50 mg), fasted, read-out: AUC0–tlast, geometric mean (CV%)
  AUC(0-t): 11500 ng·h/mL
[1]; oral, 200 mg, single dose 200 mg (4 × 50 mg), fasted, read-out: AUC0–∞, geometric mean (CV%)
  AUC(0-inf): 12900 ng·h/mL
[1]; oral, 200 mg, single dose 200 mg (4 × 50 mg), fasted, read-out: Cmax, geometric mean (CV%)
  Cmax: 1010 ng/mL
[1]; oral, 200 mg, single dose 200 mg (4 × 50 mg), fasted, read-out: Tmax, median (min–max)
  Tmax: 3.5 h
[1]; oral, 200 mg, single dose 200 mg (4 × 50 mg), fasted
  Vd/F: 344 L
[1]; oral, 200 mg, single dose 200 mg (4 × 50 mg), fasted, read-out: t½, arithmetic mean (SD) (converted)
  half-life: 15.5 h
[1]; oral, 400 mg, single dose 400 mg (8 × 50 mg), fasted, read-out: AUC0–tlast, geometric mean (CV%)
  AUC(0-t): 19000 ng·h/mL
[1]; oral, 400 mg, single dose 400 mg (8 × 50 mg), fasted, read-out: AUC0–∞, geometric mean (CV%)
  AUC(0-inf): 21600 ng·h/mL
[1]; oral, 400 mg, single dose 400 mg (8 × 50 mg), fasted, read-out: Cmax, geometric mean (CV%)
  Cmax: 1550 ng/mL
[1]; oral, 400 mg, single dose 400 mg (8 × 50 mg), fasted, read-out: Tmax, median (min–max)
  Tmax: 4 h
[1]; oral, 400 mg, single dose 400 mg (8 × 50 mg), fasted
  Vd/F: 398 L
[1]; oral, 400 mg, single dose 400 mg (8 × 50 mg), fasted, read-out: t½, arithmetic mean (SD) (converted)
  half-life: 15.2 h
[1]; oral, 5–50 mg (5 mg capsule), single dose, fasted, read-out: Median Tmax, range across doses
  Tmax: 1.75 to 2 h
[1]; oral, 50–400 mg (50 mg capsule), single dose, fasted, read-out: Median Tmax, range across doses
  Tmax: 3.04 to 4 h
[1]; po, single and multiple oral doses, fasted, read-out: Mean half-life, range across doses
  half-life: 11 to 16 h
[1]; po, single and multiple oral doses, fasted, read-out: Time of maximum plasma concentration (median), range across doses
  Tmax: 1.75 to 4 h
[1]; po, single oral dose, read-out: Arithmetic mean terminal half-life (t½), range across doses
  half-life: 11.3 to 15.5 h
[1]; single dose 5 mg (1 × 5 mg), fasted
  CL/F, geometric mean (CV%): 7.02 (24.5) L/h
[1]; single dose 20 mg (4 × 5 mg), fasted
  CL/F, geometric mean (CV%): 5.97 (10.2) L/h
[1]; single dose 50 mg (1 × 50 mg), fasted
  CL/F, geometric mean (CV%): 11.1 (43.2) L/h
[1]; single dose 50 mg (1 × 50 mg), fed
  CL/F, geometric mean (CV%): 9.23 (21.5) L/h
[1]; single dose 50 mg (10 × 5 mg), fasted
  CL/F, geometric mean (CV%): 6.69 (42.6) L/h
[1]; single dose 100 mg (2 × 50 mg), fasted
  CL/F, geometric mean (CV%): 15.7 (21.1) L/h
[1]; single dose 200 mg (4 × 50 mg), fasted
  CL/F, geometric mean (CV%): 15.5 (33.7) L/h
[1]; single dose 400 mg (8 × 50 mg), fasted
  CL/F, geometric mean (CV%): 18.5 (25.0) L/h
[2]; calculated from the no observed adverse effect level in the toxicology species (mouse and dog)
  Maximum recommended starting dose (MRSD): 162 mg
[2]; determined from the results of a murine PD study
  Maximum recommended starting dose (MRSD) in humans: 9.6 mg
[3]
  Oral bioavailability: 68%

From PMC10010643 (Cancer Chemotherapy and Pharmacology, 2023)
